Measurements reported in patent EP0043274A2, “Antithrombotic treatment” (priority 1980, dated 1982).
Read-outs that look alike come from different tables or passages of the source.

Experiments:
human plasma [1] = format: biochemical
human plasma [2] = format: biochemical; remark: listed apart in the source
F VII = molecular target: T1, F VII (Homo sapiens, UniProt P08709); assay: Coagulation factor assay (Biggs): Factor VII; format: biochemical; conditions: in vitro
T1 construct: from tissue; host or cells: human plasma
T1 sequence (P08709 61-466): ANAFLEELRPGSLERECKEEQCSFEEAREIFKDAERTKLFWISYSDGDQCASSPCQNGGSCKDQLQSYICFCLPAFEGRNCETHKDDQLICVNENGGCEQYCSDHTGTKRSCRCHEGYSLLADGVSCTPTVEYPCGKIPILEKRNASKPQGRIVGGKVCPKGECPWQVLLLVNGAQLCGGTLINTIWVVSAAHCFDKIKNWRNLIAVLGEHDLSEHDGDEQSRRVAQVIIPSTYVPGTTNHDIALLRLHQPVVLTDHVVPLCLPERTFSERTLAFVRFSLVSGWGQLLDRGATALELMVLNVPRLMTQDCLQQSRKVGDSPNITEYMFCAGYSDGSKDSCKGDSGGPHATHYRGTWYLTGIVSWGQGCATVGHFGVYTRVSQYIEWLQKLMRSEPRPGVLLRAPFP
Description: (§1) The effect of U.S.P. grade sodium bisulfite on blood coagulation factors is evaluated by standard procedures (Biggs) and the results are shown in Table III below.
(§2) References for PT, PTT, and assays of all the coagulation factors can be found in a standard textbook, entitled "Human Blood Coagulation, Haemostasis and Thrombosis", edited by Rosemary Biggs, published by Blackwell Scientific Publications, Oxford, England (2nd edition), pages 670-705, 1976.

F IX = molecular target: T2, F IX (Homo sapiens, UniProt P00740); assay: Coagulation factor assay (Biggs): Factor IX; format: biochemical; conditions: for inhibition of coagulation factor IX: in vitro; for Factor IX (%): single experiment, control 50
T2 construct: from tissue; host or cells: human plasma
Description: as §1, §2

F X = molecular target: T3, F X (Homo sapiens, UniProt P00742); assay: Coagulation factor assay (Biggs): Factor X; format: biochemical; conditions: in vitro
T3 construct: from tissue; host or cells: human plasma
Description: as §1, §2

F XI = molecular target: T4, F XI (Homo sapiens, UniProt P03951); assay: Coagulation factor assay (Biggs): Factor XI; format: biochemical; conditions: in vitro
T4 construct: from tissue; host or cells: human plasma
Description: as §1, §2

F XII = molecular target: T5, F XII (Homo sapiens, UniProt P00748); assay: Coagulation factor assay (Biggs): Factor XII; format: biochemical; conditions: in vitro
T5 construct: from tissue; host or cells: human plasma
T5 sequence (P00748 20-615): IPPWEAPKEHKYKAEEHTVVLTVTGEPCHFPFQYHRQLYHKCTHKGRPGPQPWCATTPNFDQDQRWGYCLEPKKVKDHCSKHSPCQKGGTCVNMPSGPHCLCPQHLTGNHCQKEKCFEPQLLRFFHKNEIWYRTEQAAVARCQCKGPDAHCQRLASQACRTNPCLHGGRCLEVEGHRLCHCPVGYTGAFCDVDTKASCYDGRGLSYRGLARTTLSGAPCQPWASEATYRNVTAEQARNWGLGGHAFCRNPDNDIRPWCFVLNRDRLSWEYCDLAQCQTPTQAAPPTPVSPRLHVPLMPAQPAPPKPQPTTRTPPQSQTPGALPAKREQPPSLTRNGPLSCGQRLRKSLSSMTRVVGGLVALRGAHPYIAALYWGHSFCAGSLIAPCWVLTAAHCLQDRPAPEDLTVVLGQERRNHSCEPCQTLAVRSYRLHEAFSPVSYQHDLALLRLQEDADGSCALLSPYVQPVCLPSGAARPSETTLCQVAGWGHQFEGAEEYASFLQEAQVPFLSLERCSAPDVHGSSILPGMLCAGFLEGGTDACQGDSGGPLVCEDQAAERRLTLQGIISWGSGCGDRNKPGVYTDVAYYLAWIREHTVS
Description: as §1, §2

rabbit plasma = assay: Blood coagulation tests (PT, PTT, coagulation factors) in vitro; format: biochemical; conditions: rabbit plasma in vitro, 0.5 mg/ml
Text: The alkali metalbisulfites, sodium and potassium, and ammonium bisulfite are found to prolong PT and PTT in a dose-related fashion.
The Solution I is found to prolong PT and PTT in a dose related fashion. […] The agent is active in inhibiting various coagulation factors, including factors VII, IX, X, XI, and XII.

[3] = test system: thrombus formation in the jugular vein; assay: I 125 fibrinogen technique, damaged jugular vein (venous thrombosis), continuous infusion; format: in vivo, rabbits
Description: The anti venous thrombotic effect of sodium bisulfite is evaluated in rabbits by using I ^125 fibrinogen technique as described in an article in "Archives of Surgery" Vol. 104, pg. 152 (1972).
The rabbit was continuously infused with aqueous sodium bisulfite solution at the rate of […]. (5.154 gram per hour) (animal body weight 2.3 kg) for a time of five hours. After 5 hours, the animal was sacrificed and the radioactive fibrinogen accumulated in the damaged jugular vein was determined. The radioactivity on the contra-lateral (undamaged) jugular vein was also determined to serve as a control. Concurrently, another rabbit had experienced the same procedure but received only a standard sodium chloride solution as a control. The rabbit from the normal saline solution has seven times as much radioactivity as his counterpart infused with sodium bisulfite.
Two jugular veins on a normal, healthy rabbit are exposed and one of the veins is systematically damaged by clamping in two longitudinally spaced places. The rabbit is then continuously infused with aqueous sodium formaldehyde bisulfite at the rate of […] (5.154 gram per hour) (animal body weight 2.3 kg). The rabbit is then injected with fibrinogen labeled with I^125. After 5 hours, the damaged jugular vein is evaluated for radioacive count with a Geiger counter.
This iodine 125 evaluation technique is described by Kakkar in Archieves of Surgery, Vol. 104, pg. 152 (1972) and by Kelton, J.G. et al, Journal of Clinical Investigation, Vol. 62, pgs. 892-895, (1978). […] Other rabbits, similarly evaluated, died, apparently because of overdose by the infustion technique.

[4] = continuous infusion for five hours

T2 sequence (P00740 47-461): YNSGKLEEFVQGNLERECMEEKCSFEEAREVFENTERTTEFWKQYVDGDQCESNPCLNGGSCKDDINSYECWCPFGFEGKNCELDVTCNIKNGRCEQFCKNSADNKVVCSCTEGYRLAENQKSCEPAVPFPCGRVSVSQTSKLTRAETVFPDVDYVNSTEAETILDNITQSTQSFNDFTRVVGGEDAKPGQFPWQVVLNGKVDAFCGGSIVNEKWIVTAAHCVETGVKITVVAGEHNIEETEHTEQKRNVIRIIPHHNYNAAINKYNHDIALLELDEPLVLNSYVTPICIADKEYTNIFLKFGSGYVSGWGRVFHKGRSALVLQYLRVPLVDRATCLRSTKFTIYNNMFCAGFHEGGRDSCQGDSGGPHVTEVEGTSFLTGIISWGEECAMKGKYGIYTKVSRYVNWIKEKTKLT
T4 sequence (P03951 19-625): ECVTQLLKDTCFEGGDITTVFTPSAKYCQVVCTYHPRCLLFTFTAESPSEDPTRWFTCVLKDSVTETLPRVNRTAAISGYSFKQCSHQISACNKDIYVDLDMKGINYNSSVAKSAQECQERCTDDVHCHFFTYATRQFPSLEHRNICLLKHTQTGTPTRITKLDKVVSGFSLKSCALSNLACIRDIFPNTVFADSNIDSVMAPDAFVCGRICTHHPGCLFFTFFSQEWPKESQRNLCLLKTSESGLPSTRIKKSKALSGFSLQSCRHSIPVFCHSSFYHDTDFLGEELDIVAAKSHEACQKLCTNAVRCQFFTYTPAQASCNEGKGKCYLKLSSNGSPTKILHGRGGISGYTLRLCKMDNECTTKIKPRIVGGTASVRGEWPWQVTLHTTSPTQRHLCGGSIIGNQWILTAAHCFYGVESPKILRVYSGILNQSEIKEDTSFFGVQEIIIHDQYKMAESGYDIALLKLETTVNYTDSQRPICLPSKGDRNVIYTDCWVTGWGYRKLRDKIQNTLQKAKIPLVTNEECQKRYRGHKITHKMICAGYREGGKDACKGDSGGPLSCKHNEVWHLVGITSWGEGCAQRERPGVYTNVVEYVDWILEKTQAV
T3 sequence (P00742 41-488): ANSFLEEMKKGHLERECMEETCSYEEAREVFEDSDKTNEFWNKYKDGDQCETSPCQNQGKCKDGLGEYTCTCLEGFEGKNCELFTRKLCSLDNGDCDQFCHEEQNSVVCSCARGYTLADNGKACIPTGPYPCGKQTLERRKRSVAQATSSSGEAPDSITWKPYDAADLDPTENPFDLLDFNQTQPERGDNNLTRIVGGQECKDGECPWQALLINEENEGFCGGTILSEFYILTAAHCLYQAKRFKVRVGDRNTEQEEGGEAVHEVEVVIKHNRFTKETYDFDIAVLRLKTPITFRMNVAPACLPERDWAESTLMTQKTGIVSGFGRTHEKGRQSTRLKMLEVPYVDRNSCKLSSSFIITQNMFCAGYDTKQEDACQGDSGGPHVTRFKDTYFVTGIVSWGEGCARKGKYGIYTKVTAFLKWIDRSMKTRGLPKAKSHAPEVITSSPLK

## CCN(CC)CC.O=S(O)O [TRIETHYL AMINE BISULFITE, triethyl amine bisulfite]
Human plasma [1]
  MEAN LSD (PT): 21.3 ± 3.0 s
  PT (effect in words): significantly prolong
  PT(Sec) […]. 1: 23.3 s
  PT(Sec) […]. 2: 25.3 s
  PT(Sec) […]. 3: 18.5 s
  PT(Sec) […]. 4: 18.9 s
  PT(Sec) […].5: 20.4 s
Human plasma [2]
  MEAN LSD (PTT): 73.1 ± 8.3 s
  PTT (effect in words): significantly prolong
  PTT(Sec) […]. 1: 24.7 s
  PTT(Sec) […]. 2: 86.3 s
  PTT(Sec) […]. 3: 64.2 s
  PTT(Sec) […]. 4: 71.2 s
  PTT(Sec) […].5: 68.9 s
F VII
  inhibition of coagulation factor VII: active
F IX
  inhibition of coagulation factor IX: active
  Factor IX (%): 14%
F X
  inhibition of coagulation factor X: active
F XI
  inhibition of coagulation factor XI: active
F XII
  inhibition of coagulation factor XII: active
Rabbit plasma
  PT and PTT (effect in words): significantly prolong
[3]; [4]
  radioactivity (I 125 fibrinogen) in damaged jugular vein of saline control rabbit relative to treated rabbit: seven times
  thrombus formation in the jugular vein (conclusion in words): definite positive antithrombotic effect

## C[N+](C)(C)C [Tetramethyl-ammonium bisulfite]
Human plasma [1]
  PT sec.: 21.7 s
Human plasma [1]; in vitro, 0.5 mg/ml
  PT (effect in words): significantly prolong
Human plasma [2]; in vitro, 0.5 mg/ml
  PTT (effect in words): significantly prolong
F VII
  inhibition of coagulation factor VII: active
F IX
  inhibition of coagulation factor IX: active
  Factor IX (%): 12.5%
F X
  inhibition of coagulation factor X: active
F XI
  inhibition of coagulation factor XI: active
F XII
  inhibition of coagulation factor XII: active
Rabbit plasma
  PT and PTT (effect in words): significantly prolong
[3]; continuous infusion
  mortality of infused rabbits: death of the rabbit
